The test system of one data set is Pneumocystis carinii. In words: Pneumocystis carinii infection in immunosuppressed mice, lung cyst count. It is filed as in vivo, C3H/He mice. The conditions noted are these: 2.0 mg/kg intraperitoneally twice daily, lung tissue. The procedure:
In a representative study on the effectiveness of Compound IB, ten male C3H/He mice, weighing 22-24 gms. each, were immunosuppressed by the addition of dexamethasone to the drinking water (8.0 mg/L) for six weeks to induce the development of P. carinii infections. To enhance the infection the mice were also maintained on a low protein diet. At the beginning of the seventh week the mice were divided into two groups. Both groups continued to receive dexamethasone in the drinking water and low protein diet for the remainder of the study. Mice in Group I were injected intraperitoneally twice daily with 0.5 ml of a 10% dimethylsulfoxide (DMSO) solution as a vehicle control. Mice in Group II were injected intraperitoneally twice daily with 0.5 ml of sterile water containing 0.05 mg of compound IB (dissolved in DMSO, final concentration of DMSO is 10%, actual dose was 2.0 mg/kg). […]
At the end of the treatment period (a total of eight weeks immunosuppression) the animals were sacrificed and the lung tissue removed. The tissue was then processed to determine the number of cysts for each animal. Compound IB reduced the number of cysts by 84% as compared to the control animals. […]

Another data set has as its system red blood cells. In words: titration/hemolysis assay, red blood cell lysis. It is filed as cell-based, CD-1 female mice. The conditions noted are these: highest drug concentration that did not lyse the red blood cells; 25°C, two hours; 5 percent dextrose. The procedure: Compound I or a component thereof has potential as a replacement for a known antifungal agent which while effective as an antifungal agent is of limited utility for having lytic effect on red blood cells at low dose levels. This property was discovered in a standard titration/hemolysis assay using fresh blood drawn from CD-1 female mice. In a representative assay, a concentration of Compound IB in the range of from 0.39 to 400 µg/ml in 5 percent dextrose and a drug free control were employed.
In carrying out the determination, the assay tubes prepared by mixing together 2 milliliters of appropriate drug dilution and 0.5 milliliter of red blood cell suspension were gently shaken to mix the contents and then the tubes were incubated at 25°C for two hours. At the end of this time, the tubes were examined visually for complete or partial red blood cell hemolysis and compared to a drug free control. […] The MLC for Compound IB was greater than 400 µg/ml.

A further data set relates to Candida parapsilosis. In words: microbroth dilution assay, minimum fungicidal concentration (MFC). It is filed as cell-based. The conditions noted are these: Lodderomyces parapsilosis, YNBD medium. The procedure:
(§1) The activity may be seen in a microbroth dilution assay employing as medium a Yeast Nitrogen Base (Difco) with 1% dextrose (YNBD) as the medium. In carrying out the assay, Compound IB, IC-1 and IC-2 were solubilized in 10 percent dimethyl sulfoxide (DMSO) and diluted to 2560 µg/ml. The compounds were then diluted to 256 µg/ml in YNBD. 0.15 ml of the suspension was dispensed to the top row of a 96-well plate (each well containing 0.15 ml of YNDB) resulting in a drug concentration of 128 µg/ml. Two-fold dilutions were then made from the top row to obtain final drug concentrations ranging from 128 to 0.06 µg/ml.
(§2) The yeast cultures, maintained on Sabouraud dextrose agar were transferred to YM broth (Difco) and incubated overnight at 35°C with shaking (250 rpm). After incubation, each culture was diluted in sterile water to yield a final concentration of 1-5 x 10⁶ colony forming units (CFU)/ml.
(§3) 96-well microplates were inoculated using a MIC-2000 (Dynatech) which delivers 1.5 µl per well yielding a final inoculum per well of 1.5-7.5 x 10³ cells. The microplates were incubated at 35°C for 24 hours. The minimum inhibitory concentrations (MICs) were recorded as the lowest concentrations of drug showing no visible growth.
(§4) After recording the MIC, the plates were shaken to resuspend the cells. Thereafter, […] samples from the wells in the 96-well microplate were transferred to a single well tray containing Sabouraud dextrose agar. The inoculated trays were incubated 24 hours at 28°C and then read. The MFC is defined as the lowest concentration of drug showing no growth or less than 4 colonies per spot.
In general terms: In broth dilution the organism is exposed to a series of concentrations in liquid medium.

In the next data set the test system is Candida tropicalis. Described as above. It is filed as cell-based. The conditions noted are these: read-out: Minimum Fungicidal Concentration. The procedure: as §1, §2, §3, §4
For another data set, the system named is Candida albicans. The data set is described as above. It is filed as cell-based. The procedure: as §1, §2, §3, §4

In brackets after ≈: the same amount, converted by molar mass. Where two headings read alike, the source gives them in different places.

Regarding “1-[N²-(10,12-dimethyl-1-oxotetradecyl)ornithine]-4-[4-(4-hydroxyphenyl)-2-aminobutanoic acid]-5-(3-hydroxyglutamine)echinocandin B [Compound IC]”, the “reduced the number of cysts as compared to the control animals” value in the data set on Pneumocystis carinii (treatment period one week) is 66%.

For `C[C@@H]1[C@H](O)[C@@H](C)/C=C/C=C/C=C/C=C/C=C/C=C/C=C/[C@H](O[C@@H]2O[C@H](C)[C@@H](O)[C@H](N)[C@@H]2O)C[C@@H]2O[C@](O)(C[C@@H](O)C[C@@H](O)[C@H](O)CC[C@@H](O)C[C@@H](O)CC(=O)O[C@H]1C)C[C@H](O)[C@H]2C(=O)O` [amphotericin B, reference compound], the “minimum lytic concentration (MLC)” value in the data set on red blood cells stood at 12.5 µg/mL.

Turning to `CCC(C)CC(C)CCCCCCCCC(=O)NC1CCC(O)NC(=O)C2C(O)C(C)CN2C(=O)C(C(O)CC(N)=O)NC(=O)C(CCc2ccc(O)cc2)NC(=O)C2CC(O)CN2C(=O)C(C(C)O)NC1=O` (stereo not shown) [Compound IB, 1-[5-hydroxy N²-(10, 12-dimethyl-1-oxotetra-decyl)-ornithine]-4-[4-(4-hydroxyphenyl)-2-amino-butanoic acid]-5-(3-hydroxyglutamine) echinocandin B], the “minimum lytic concentration (MLC)” value with red blood cells is listed as “greater than 400 µg/ml”. The MFC in the data set on Candida parapsilosis (read-out: Minimum Fungicidal Concentration, Candida parapsilosis MY 1009) was determined as 16 µg/mL (≈ 15.5 µM); in the data set with Candida parapsilosis (read-out: Minimum Fungicidal Concentration, Candida parapsilosis MY 1010) it was 8 µg/mL (≈ 7.76 µM); with Candida tropicalis, 2 µg/mL (≈ 1.94 µM); in the data set with Candida albicans (read-out: Minimum Fungicidal Concentration, Candida albicans MY 1028, YNBD medium), 1 µg/mL (≈ 0.97 µM); in the data set on Candida albicans (read-out: Minimum Fungicidal Concentration, Candida albicans MY 1055, YNBD medium), 0.5 µg/mL (≈ 0.485 µM); in the data set with Candida albicans (read-out: Minimum Fungicidal Concentration, Candida albicans MY 1208, YNBD medium), 2 µg/mL (≈ 1.94 µM). In addition, the MFC in the data set on Candida albicans (read-out: Minimum Fungicidal Concentration, Candida albicans MY 1585, YNBD medium) amounted to 1 µg/mL (≈ 0.97 µM); with Candida albicans (read-out: Minimum Fungicidal Concentration, Candida albicans MY 1750, YNBD medium), 1 µg/mL (≈ 0.97 µM); with Candida albicans (read-out: Minimum Fungicidal Concentration, Candida albicans MY 1783, YNBD medium), 2 µg/mL (≈ 1.94 µM). In the data set on Pneumocystis carinii (treatment period two weeks), the “reduced the number of cysts as compared to the control animals” value was 84%.

For the origin of these results see patent EP0405998A1, “Antibiotic agents” (priority 1989, dated 1991).
